pEC50, pIC50: −log10 of the molar value.
What was measured:
5-HT2B = molecular target: T1, 5-HT2B (Homo sapiens, UniProt P41595); experiment: IPOne, 5-HT2B; assay type: cell-based; conditions: for Emax: IPOne, human 5-HT2B, read-out: Emax (% α-Me-5-HT)
T1 construct: expressed in transfected cells
Procedure: (§1) In vitro pharmacology studies were performed to evaluate the effects of compound 2-1 on functional activity of several 5-HT receptors using recombinant target overexpression cell culture systems. The effect of compound 2-1 on G protein-dependent signaling was investigated at 5-HT2A, 5-HT2B, and 5-HT2C receptors with calcium mobilization and IPOne assays; and at 5-HT1A, 5-HT1B, 5-HT1F, 5-HT5A, and 5-HT7D receptors with a cAMP assay. G protein-independent signaling was investigated at the 5-HT2A receptor with a β-Arrestin assay.
(§2) In vitro pharmacology studies were performed to evaluate the effects of compound 2-2 on functional activity at several 5-HT receptors using recombinant target overexpression cell culture systems. The effect of compound 2-2 on G protein-dependent signaling was investigated at 5-HT2A, 5-HT2B, and 5-HT2C receptors with calcium mobilization and IPOne assays; and at 5-HT1A, 5-HT1B, 5-HT1F, 5-HT5A, and 5-HT7D receptors with a cAMP assay. G protein-independent signaling was investigated at the 5-HT2A receptor with a β-arrestin assay. […] In Table 4, 5-HT receptor selectivity was calculated using ΔΔlog(Emax/EC50). Assay reference α-Me-5-HT or 5-HT was used for normalization at each receptor (5-HT2A/5-HT2B selectivity=1; 5-HT2A/5-HT2C selectivity=1). ND in Table 4 indicates, not determined, plateau was not reached within the concentration range tested to determine Emax.

5-HT1A = molecular target: T2, 5-HT1A (Homo sapiens, UniProt P08908); experiment: cAMP, 5-HT1A; assay type: cell-based
T2 construct: expressed in transfected cells
T2 sequence (P08908 1-422): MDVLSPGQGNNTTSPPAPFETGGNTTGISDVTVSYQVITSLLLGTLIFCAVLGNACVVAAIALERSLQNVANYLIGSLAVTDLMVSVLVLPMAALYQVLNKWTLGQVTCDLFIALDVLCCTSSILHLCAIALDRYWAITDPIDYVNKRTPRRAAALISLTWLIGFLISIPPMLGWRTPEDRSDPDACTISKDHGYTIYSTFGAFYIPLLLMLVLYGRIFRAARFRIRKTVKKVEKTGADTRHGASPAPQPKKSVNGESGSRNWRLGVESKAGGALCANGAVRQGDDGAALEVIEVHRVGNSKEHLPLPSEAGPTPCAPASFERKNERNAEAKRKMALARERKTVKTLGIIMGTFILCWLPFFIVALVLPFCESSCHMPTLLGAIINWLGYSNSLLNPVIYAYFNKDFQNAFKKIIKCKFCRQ
Procedure: as §1, §2

5-HT1B = molecular target: T3, 5-HT1B (Homo sapiens, UniProt P28222); experiment: cAMP, 5-HT1B; assay type: cell-based
T3 construct: expressed in transfected cells
T3 sequence (P28222 whole entry): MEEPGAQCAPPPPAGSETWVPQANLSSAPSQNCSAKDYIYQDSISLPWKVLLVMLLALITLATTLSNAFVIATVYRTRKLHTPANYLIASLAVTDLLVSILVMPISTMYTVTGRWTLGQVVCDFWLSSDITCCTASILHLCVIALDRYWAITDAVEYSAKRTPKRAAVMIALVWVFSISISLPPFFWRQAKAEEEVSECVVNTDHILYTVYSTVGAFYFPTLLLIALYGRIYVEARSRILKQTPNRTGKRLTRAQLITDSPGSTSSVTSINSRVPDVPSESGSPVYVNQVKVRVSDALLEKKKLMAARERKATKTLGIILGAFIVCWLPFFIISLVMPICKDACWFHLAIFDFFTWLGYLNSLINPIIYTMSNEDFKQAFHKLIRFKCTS
Procedure: as §1, §2

5-HT1F = molecular target: T4, 5-HT1F (Homo sapiens, UniProt P30939); experiment: cAMP, 5-HT1F; assay type: cell-based
T4 construct: expressed in transfected cells
T4 sequence (P30939 1-366): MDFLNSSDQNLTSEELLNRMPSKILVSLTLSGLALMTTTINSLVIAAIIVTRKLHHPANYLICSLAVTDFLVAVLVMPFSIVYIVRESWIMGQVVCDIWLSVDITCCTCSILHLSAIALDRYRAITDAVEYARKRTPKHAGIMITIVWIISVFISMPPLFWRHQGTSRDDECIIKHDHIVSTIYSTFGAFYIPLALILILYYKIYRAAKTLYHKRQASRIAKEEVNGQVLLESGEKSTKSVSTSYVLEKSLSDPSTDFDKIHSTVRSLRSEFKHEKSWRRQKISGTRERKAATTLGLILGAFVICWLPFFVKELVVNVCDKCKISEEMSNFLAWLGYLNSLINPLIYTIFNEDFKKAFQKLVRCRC
Procedure: as §1, §2

5-HT7D = molecular target: T5, 5-HT7D (Homo sapiens, UniProt P34969); experiment: cAMP, 5-HT7D; assay type: cell-based
T5 construct: expressed in transfected cells
T5 sequence (P34969 whole entry): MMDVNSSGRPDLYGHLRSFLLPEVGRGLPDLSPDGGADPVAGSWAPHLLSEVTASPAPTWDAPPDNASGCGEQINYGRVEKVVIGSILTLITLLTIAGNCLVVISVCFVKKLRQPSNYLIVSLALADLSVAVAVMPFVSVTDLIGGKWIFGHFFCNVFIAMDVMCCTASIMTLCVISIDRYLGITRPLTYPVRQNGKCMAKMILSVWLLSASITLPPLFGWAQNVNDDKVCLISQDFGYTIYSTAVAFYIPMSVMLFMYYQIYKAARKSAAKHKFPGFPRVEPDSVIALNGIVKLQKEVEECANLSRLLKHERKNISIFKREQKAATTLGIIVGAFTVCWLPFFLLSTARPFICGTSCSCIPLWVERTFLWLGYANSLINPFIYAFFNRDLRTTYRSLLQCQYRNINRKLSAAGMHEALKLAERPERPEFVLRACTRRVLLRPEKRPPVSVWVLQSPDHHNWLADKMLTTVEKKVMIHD
Procedure: as §1, §2

5-HT2A (rat) = 5-HT2A (rat) (Rattus norvegicus, UniProt P14842); experiment: IPOne, rat 5-HT2A; assay type: cell-based; conditions: for Emax / 5-HT2A/5-HT2B Selectivity (rat): IPOne; for Emax: rat 5-HT2A, read-out: Emax (% α-Me-5-HT); for 5-HT2A/5-HT2B Selectivity (rat): rat receptors
Sequence of 5-HT2A (rat) (P14842 whole entry): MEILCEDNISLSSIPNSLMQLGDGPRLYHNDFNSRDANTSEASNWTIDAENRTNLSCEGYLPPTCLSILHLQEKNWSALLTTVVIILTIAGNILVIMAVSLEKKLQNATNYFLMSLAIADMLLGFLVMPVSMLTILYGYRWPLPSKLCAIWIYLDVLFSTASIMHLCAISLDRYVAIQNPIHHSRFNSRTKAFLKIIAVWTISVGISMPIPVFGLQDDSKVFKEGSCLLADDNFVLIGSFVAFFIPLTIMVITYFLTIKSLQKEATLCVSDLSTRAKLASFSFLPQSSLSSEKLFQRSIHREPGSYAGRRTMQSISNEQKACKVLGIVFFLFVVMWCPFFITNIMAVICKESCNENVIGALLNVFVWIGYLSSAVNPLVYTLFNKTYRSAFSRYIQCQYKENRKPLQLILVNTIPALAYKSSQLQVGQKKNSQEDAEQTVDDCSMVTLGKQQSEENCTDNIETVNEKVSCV
Excerpt: (§3) Overall, in vitro activity at rodent 5-HT2A and 5-HT2B receptors is consistent with the human receptor results, with compound 2-1 acting as a potent and selective 5-HT2A agonist.
(§4) Overall, in vitro activity at rodent 5-HT2A and […] receptors is consistent with the human receptor results, with compound 2-2 acting as a potent and selective 5-HT2A agonist. In Table 5, ND indicates not determined.

5-HT2B (rat) = 5-HT2B (rat) (Rattus norvegicus, UniProt P30994); experiment: IPOne, rat 5-HT2B; assay type: cell-based
Sequence of 5-HT2B (rat) (P30994 whole entry): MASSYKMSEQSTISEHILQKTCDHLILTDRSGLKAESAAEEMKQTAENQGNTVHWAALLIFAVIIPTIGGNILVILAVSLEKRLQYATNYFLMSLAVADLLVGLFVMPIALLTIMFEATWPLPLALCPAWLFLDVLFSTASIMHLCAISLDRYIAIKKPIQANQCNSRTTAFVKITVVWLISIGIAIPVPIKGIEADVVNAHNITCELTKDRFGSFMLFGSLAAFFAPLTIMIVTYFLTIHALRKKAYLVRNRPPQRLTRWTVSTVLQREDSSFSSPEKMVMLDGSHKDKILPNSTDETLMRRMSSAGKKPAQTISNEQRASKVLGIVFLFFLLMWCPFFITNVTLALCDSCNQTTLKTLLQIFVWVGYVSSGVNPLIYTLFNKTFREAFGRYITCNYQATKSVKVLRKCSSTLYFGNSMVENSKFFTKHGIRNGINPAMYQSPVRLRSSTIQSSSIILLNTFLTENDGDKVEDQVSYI
Excerpt: as §3, §4

5-HT2A = 5-HT2A (Homo sapiens, UniProt P28223); experiment: Radioligand binding, 5-HT2A; set-up: expressed in transfected cells; conditions: for Max % inhibition: radioligand binding, human 5-HT2A
Sequence of 5-HT2A (P28223 whole entry): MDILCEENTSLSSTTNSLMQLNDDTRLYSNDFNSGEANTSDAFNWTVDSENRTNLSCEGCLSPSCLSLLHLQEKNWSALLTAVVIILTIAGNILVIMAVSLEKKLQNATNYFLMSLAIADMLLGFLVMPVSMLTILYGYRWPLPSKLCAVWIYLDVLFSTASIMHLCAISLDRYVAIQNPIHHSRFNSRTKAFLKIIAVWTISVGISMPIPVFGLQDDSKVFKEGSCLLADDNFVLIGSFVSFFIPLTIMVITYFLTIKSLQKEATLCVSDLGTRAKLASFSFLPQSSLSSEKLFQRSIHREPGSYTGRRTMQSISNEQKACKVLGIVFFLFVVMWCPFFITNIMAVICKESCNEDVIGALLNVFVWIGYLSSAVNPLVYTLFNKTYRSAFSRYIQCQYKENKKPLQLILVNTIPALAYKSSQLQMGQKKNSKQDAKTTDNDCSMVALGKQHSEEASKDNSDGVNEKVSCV

T1 sequence (P41595 whole entry): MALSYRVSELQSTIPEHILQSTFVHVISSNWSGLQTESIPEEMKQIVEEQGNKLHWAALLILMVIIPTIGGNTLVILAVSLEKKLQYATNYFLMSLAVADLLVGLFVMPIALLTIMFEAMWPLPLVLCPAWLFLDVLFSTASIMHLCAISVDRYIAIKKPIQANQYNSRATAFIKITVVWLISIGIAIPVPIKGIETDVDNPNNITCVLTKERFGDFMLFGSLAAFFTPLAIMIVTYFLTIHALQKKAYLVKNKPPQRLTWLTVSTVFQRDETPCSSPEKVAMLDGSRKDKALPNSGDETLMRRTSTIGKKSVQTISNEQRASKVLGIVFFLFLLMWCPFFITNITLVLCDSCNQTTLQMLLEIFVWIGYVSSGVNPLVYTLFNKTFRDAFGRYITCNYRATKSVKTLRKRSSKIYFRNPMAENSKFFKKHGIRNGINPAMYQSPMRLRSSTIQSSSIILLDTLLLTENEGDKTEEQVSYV

Row | SMILES | pEC50 (5-HT2B) | Emax (5-HT2B) [%] | agonist activity (in words) (5-HT2B; human 5-HT2B receptor) | pEC50 (5-HT1A) | pEC50 (5-HT1B) | pEC50 (5-HT1F) | pEC50 (5-HT7D) | pEC50 (5-HT2A (rat)) | Emax (5-HT2A (rat)) [%] | 5-HT2A/5-HT2B Selectivity (rat) (5-HT2A (rat)) | agonist activity (in words) (5-HT2A (rat); rat 5-HT2A receptor) | pEC50 (5-HT2B (rat)) | agonist activity (in words) (5-HT2B (rat); rat 5-HT2B receptor) | pIC50 (5-HT2A) | Max % inhibition (5-HT2A) [%]
1 | COc1ccc(OC)c(CCNCc2cc(C)cc(Cl)c2)c1 [Compound 2-1, N-(3-chloro-5-methylbenzyl)-2-(2,5-dimethoxyphenyl)ethan-1-amine] | 7.46 | 77.6 | full agonist activity | < 4.70 | < 4.00 | < 5.05 | < 4.00 | 8.51 | 99.5 | >100000 | full agonist activity | < 6.00 | inactive | 7.37 | 96.93
2 | COc1ccc(OC)c(CCNCc2cc(C)cc(F)c2)c1 [Compound 2-2, 2-(2,5-dimethoxyphenyl)-N-(3-fluoro-5-methylbenzyl)ethan-1-amine] | 7.09 | 49.3 | – | < 6.00 | < 4.00 | < 4.60 | < 4.00 | 8.14 | 105 | >100000 | – | < 6.00 | – | 6.98 | 99
